# According to PubChem BioAssay (NCI):
#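 The compound was tested at five concentrations on cells cultured in 96-well plates, with a 48-hour exposure period. TGI denotes the concentration required for complete inhibition of growth.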
# Key:
# Test in all cases: DTP human tumour cell line panel, 48 h
# COLO 205 colon = tested on: COLO 205 colon
# NCI-H226 lung = tested on: NCI-H226 lung
# SW-620 colon = tested on: SW-620 colon
# MOLT-4 leukemia = tested on: MOLT-4 leukemia
# MDA-MB-435 = tested on: MDA-MB-435
# CAKI-1 renal = tested on: CAKI-1 renal
# UO-31 renal = tested on: UO-31 renal
# SN12C renal = tested on: SN12C renal
# OVCAR-3 ovarian = tested on: OVCAR-3 ovarian
# ACHN renal = tested on: ACHN renal
# SK-MEL-28 melanoma = tested on: SK-MEL-28 melanoma
Structure (SMILES),TGI (COLO 205 colon) [µM],TGI (NCI-H226 lung) [µM],TGI (SW-620 colon) [µM],TGI (MOLT-4 leukemia) [µM],TGI (MDA-MB-435) [µM],TGI (CAKI-1 renal) [µM],TGI (UO-31 renal) [µM],TGI (SN12C renal) [µM],TGI (OVCAR-3 ovarian) [µM],TGI (ACHN renal) [µM],TGI (SK-MEL-28 melanoma) [µM]
OC1C2[C@@H](O)CCCN2C[C@@H](O)[C@H]1O (some centres undefined),> 100,> 100,> 100,> 100,> 100,> 100,> 100,> 100,> 100,> 100,> 100
COc1ccccc1N/C(=C\C(=O)C(=O)NC12CC3CC(CC(C3)C1)C2)c1ccccc1,> 10,> 10,> 10,> 10,> 10,> 10,> 10,> 10,> 10,> 10,> 10
CC(C)Sc1nc(C#N)cc2c1CCCC2,50.1,> 100,> 100,61.6,> 100,> 100,> 100,> 100,> 100,> 100,> 100
CCOc1cc(NC(C)=O)ccc1C(=O)NNC(=O)c1ccccc1OC(C)=O,> 77.9,> 59.3,> 100,> 40.5,> 100,> 50,> 100,> 91.4,> 100,> 100,> 100
Cc1ccc([C@@H]2[C@@H](C(=O)c3ccccn3)[C@H](c3ccc(C)cc3)C[C@](O)(c3ccccn3)[C@H]2C(=O)c2ccccn2)cc1,> 100,> 100,> 100,> 100,> 100,> 100,> 100,> 100,> 64.4,> 40.4,> 100
CN1C(=O)N(c2ccccc2)C2(CCN(CC3COc4ccccc4O3)CC2)C1=O (centres undefined),> 100,> 100,36.4,> 100,> 100,> 100,> 100,> 100,89.2,> 100,> 100
O=C(Nc1ccc(Br)cc1)c1c(-c2ccccc2)c2ccc(O)cc2oc1=O,> 10,> 10,> 10,> 10,> 10,> 10,> 10,> 10,> 10,> 10,> 10
COCOC1/C=C/CCCCC2=C(C)C=C(C1)O2 (centres undefined),> 100,> 100,> 100,> 100,> 100,> 100,> 100,> 100,> 100,> 100,> 100
CSc1nc(Cl)c2c(n1)Sc1nc3cc4c(cc3n1C2O)OCCO4 (centres undefined),0.142,0.889,25.2,16.7,> 100,1.21,16,46.6,2.46,26.8,21.7
